{"source": "ChEMBL document CHEMBL5727528", "about": "“Benzenesulfonamide compounds, method for synthesizing same, and use thereof in medicine and cosmetics” (2020)", "target": "T1, Interstitial collagenase (Homo sapiens, UniProt P03956)", "T1 sequence (P03956 whole entry)": "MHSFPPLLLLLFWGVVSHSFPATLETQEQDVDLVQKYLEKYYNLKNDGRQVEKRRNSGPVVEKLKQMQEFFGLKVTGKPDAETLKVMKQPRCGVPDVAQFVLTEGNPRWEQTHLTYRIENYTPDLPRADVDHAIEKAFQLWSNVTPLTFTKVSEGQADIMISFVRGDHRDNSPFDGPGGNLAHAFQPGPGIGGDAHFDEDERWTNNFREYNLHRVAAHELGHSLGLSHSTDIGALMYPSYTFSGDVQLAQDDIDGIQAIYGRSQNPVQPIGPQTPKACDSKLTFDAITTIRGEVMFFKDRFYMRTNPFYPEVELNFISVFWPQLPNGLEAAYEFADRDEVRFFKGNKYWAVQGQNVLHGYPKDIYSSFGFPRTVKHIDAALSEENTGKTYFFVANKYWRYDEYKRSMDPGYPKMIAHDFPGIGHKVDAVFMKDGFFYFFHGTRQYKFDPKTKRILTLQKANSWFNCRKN"}
{"smiles": "COCCN(C1(C(=O)NO)CN(C(=O)C(C)C)C1)S(=O)(=O)c1ccc(OCc2cc(C)nc3ccccc23)cc1", "values": [{"measurement": "IC50", "result": "> 10", "unit": "µM"}]}
